Results on six compounds are retold here after ChEMBL document CHEMBL1138334, “From astemizole to a novel hit series of small-molecule somatostatin 5 receptor antagonists via GPCR affinity profiling” (J Med Chem, 2007).

Assay [1] addresses Somatostatin receptor type 5 (Homo sapiens, UniProt P35346). Kind of assay: Binding affinity to human SST5R.
In assay [2] the target is Somatostatin receptor type 3 (Homo sapiens, UniProt P32745). Kind of assay: Binding affinity to human SST3R.
Assay [3] has as its target Histamine H1 receptor (Homo sapiens, UniProt P35367). Kind of assay: Binding affinity to human histamine H1 receptor.
The target in assay [4] is Somatostatin receptor type 2 (Homo sapiens, UniProt P30874). Kind of assay: Binding affinity to human SST2R.
Sequence of Somatostatin receptor type 2 (P30874 whole entry): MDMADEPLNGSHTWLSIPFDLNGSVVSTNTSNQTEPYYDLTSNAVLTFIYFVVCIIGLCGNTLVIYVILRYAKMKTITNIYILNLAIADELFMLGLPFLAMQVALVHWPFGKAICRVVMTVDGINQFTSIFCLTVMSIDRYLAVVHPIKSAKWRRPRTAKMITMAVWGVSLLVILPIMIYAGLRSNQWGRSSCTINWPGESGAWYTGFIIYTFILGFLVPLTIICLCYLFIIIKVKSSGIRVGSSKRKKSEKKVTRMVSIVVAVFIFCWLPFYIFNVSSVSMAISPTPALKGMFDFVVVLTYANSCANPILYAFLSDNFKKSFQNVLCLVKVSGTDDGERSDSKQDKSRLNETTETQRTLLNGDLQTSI
The target of assay [5] is Somatostatin receptor type 1 (Homo sapiens, UniProt P30872). The assay can be described thus: Binding affinity to human SST1R.
Sequence of Somatostatin receptor type 1 (P30872 whole entry): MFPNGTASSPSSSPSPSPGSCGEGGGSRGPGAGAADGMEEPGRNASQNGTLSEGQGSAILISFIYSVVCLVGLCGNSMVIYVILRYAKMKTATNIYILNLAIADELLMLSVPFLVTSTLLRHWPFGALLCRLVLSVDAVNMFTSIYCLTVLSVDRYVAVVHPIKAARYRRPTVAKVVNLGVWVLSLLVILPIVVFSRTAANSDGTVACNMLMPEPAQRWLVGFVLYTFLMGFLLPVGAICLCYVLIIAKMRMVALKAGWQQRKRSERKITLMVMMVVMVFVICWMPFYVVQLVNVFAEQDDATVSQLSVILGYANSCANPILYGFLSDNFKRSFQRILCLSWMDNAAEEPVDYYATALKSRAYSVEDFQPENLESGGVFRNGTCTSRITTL
Assay [6] concerns the target Voltage-gated inwardly rectifying potassium channel KCNH2 (Homo sapiens, UniProt Q12809). Kind of assay: Binding affinity to human ERG channel.

Sequence of Somatostatin receptor type 5 (P35346 whole entry): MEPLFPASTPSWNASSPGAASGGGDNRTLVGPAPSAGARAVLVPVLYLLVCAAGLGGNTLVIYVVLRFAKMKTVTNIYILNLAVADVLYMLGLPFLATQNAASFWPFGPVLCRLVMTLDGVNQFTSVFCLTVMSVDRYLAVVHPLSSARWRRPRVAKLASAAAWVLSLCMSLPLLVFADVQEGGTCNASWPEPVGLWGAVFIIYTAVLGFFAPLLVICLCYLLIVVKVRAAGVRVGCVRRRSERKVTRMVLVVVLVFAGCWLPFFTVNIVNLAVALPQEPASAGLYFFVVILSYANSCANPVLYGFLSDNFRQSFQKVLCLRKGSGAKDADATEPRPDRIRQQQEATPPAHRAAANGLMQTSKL
Sequence of Histamine H1 receptor (P35367 whole entry): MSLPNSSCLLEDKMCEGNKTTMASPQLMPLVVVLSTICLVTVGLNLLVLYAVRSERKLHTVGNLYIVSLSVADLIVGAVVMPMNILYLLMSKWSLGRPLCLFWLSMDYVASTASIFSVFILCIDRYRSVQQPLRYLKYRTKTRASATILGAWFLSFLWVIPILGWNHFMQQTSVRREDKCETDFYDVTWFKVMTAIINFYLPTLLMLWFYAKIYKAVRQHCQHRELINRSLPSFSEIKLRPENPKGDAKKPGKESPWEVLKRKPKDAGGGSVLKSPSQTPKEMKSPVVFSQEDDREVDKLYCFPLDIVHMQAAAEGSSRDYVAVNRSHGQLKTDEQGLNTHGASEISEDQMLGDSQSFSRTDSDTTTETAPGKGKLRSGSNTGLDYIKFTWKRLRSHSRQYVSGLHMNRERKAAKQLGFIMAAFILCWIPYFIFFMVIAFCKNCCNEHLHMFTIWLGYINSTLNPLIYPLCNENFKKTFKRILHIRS
Sequence of Voltage-gated inwardly rectifying potassium channel KCNH2 (Q12809 whole entry): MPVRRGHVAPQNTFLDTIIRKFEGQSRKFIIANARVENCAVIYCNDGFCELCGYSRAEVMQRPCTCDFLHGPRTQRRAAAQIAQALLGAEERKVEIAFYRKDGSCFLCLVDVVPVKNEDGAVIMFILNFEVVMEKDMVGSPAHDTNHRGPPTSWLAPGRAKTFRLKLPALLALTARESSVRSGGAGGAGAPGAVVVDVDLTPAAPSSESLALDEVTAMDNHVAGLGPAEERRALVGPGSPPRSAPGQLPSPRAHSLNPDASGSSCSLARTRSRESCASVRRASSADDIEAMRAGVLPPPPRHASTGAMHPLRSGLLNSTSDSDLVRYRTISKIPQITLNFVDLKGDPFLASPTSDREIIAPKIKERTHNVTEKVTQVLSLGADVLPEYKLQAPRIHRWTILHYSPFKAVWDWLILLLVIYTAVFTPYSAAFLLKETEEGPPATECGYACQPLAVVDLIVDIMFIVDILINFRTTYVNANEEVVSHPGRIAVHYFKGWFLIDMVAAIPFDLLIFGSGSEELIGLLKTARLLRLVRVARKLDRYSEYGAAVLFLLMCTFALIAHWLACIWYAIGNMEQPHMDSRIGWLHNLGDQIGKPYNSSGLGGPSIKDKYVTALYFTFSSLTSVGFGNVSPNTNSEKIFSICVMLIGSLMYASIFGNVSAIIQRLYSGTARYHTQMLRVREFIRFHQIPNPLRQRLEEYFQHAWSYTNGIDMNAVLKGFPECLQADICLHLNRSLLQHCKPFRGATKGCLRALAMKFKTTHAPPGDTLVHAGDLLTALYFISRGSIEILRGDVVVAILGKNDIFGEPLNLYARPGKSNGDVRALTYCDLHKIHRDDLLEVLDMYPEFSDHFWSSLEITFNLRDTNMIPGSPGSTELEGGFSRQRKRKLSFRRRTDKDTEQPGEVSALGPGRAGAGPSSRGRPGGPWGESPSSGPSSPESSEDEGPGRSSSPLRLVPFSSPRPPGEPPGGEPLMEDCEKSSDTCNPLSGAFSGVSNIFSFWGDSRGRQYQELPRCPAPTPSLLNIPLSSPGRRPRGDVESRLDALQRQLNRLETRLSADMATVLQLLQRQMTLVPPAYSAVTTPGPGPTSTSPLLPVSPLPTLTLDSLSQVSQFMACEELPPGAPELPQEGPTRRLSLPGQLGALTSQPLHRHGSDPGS
Sequence of Somatostatin receptor type 3 (P32745 whole entry): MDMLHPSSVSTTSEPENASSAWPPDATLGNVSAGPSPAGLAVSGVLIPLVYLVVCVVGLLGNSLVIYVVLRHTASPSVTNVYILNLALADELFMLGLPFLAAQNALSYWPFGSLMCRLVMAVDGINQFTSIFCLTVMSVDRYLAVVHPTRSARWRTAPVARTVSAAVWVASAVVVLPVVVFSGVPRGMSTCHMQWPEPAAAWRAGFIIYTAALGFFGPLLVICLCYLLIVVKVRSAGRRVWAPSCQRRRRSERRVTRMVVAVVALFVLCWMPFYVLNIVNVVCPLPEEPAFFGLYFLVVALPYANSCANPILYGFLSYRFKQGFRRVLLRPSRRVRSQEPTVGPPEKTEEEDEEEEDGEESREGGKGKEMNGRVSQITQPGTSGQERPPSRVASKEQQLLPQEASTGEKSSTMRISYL

The Ki is a measure of affinity in units of concentration, obtained from inhibition or displacement. The low end stands for higher affinity, the high end for lower affinity. Consider `COc1cc(CN2CCC(NC(=O)c3cncc(C)c3)CC2)c(OC)c2ccccc12`, for which the inhibitory constant (Ki) in assay [1] came out at 40 nM.
With `CCOc1cc(CN2CCC(NC(=O)c3cncc(C)c3)CC2)ccc1Cl`, the inhibition constant (Ki) was over 10000 nM in assay [2]; 20 nM in assay [1]; 270 nM in assay [3]; over 10000 nM in assay [4]; 5100 nM in assay [5].
Broadly, the IC50 is the point on the concentration scale where inhibition reaches its midpoint. As to `CCOc1cc(CN2CCC(NC(=O)c3cccc(S(C)(=O)=O)c3)CC2)ccc1Cl`, the Ki is 60 nM in assay [1] and over 5000 nM in assay [3]. Further, the IC50 in assay [6] turned out to be 1300 nM.
`COc1cc(CN2CCC(NC(=O)c3ccccc3)CC2)c(OC)c2ccccc12` showed a Ki in assay [1] of 120 nM.
Compound `COc1cc(CN2CCC(NC(=O)c3ccc(C(C)(C)C)cc3)CC2)c(OC)c2ccccc12` showed an inhibitory constant (Ki) in assay [1] of 20 nM.
The same measure, in the same setting: the value for `COc1cc(CN2CCC3(CC2)OC(=O)c2ccccc23)c(OC)c2ccccc12` was 1100 nM.
